The values that follow come from publication PMC3875237, “Fragment-based design for the development of N-domain-selective angiotensin-1-converting enzyme inhibitors” (Clinical Science (London, England : 1979), 2013).

In assay [1] the target is T1, ACE N-domain mutant R381E (Homo sapiens, UniProt P12821, R410E).
T1 construct: N-domain S2 mutants Y369F, R381E and YR/FE
Briefly: continuous fluorogenic (Abz)-FRK(Dnp)P-OH ACE inhibition assay, N-domain S2 mutant R381E. The class given is biochemical. How it is done:
(§1) Parent molecule RXP407 and compound 33RE were dissolved in sterile distilled water to yield stock solutions of 10 mM and subsequently serially diluted in assay buffer (50 mM Hepes, pH 6.8, 200 mM NaCl and 10 μM ZnSO4). Assays were performed on wild-type N-domain, C-domain and N-domain S2 mutants Y369F, R381E and YR/FE as described previously. Briefly, 40 nM enzyme was incubated with an equivolume amount of an appropriate concentration range of phosphinic inhibitor at ambient temperature for 5 min. Enzyme-inhibitor solutions were then divided into aliquotes in triplicate 20 μl volumes followed by the addition of 280 μl of fluorogenic substrate (Abz)-FRK(Dnp)P-OH (in assay buffer) to yield a final substrate concentration of 4 or 8 μM. Residual enzyme activity was monitored continuously at λex=320 nm and λem=420 nm using a fluorescence spectrophotometer (Cary Eclipse, Varian). Initial change of fluorescence over time was converted into arbitrary rate units and inhibitor-binding affinities determined using the Dixon method.
(§2) Assessment of inhibitor potential was carried out using a continuous fluorogenic assay (Abz)-FRK(Dnp)P assay.

Assay [2] concerns the target T2, ACE N-domain double mutant YR/FE (Homo sapiens, UniProt P12821, R410E/Y398F).
T2 construct: N-domain S2 mutants Y369F, R381E and YR/FE
Briefly: continuous fluorogenic (Abz)-FRK(Dnp)P-OH ACE inhibition assay, N-domain S2 double mutant YR/FE. The class given is biochemical. How it is done: as §1, §2

For assay [3], the target named is T3, ACE N-domain (wild-type) (Homo sapiens, UniProt P12821).
T3 construct: Assays were performed on wild-type N-domain, C-domain and N-domain S2 mutants; made in house; host or cells: CHO (Chinese-hamster ovary) cells
T3 sequence (P12821 40-624 limits assumed): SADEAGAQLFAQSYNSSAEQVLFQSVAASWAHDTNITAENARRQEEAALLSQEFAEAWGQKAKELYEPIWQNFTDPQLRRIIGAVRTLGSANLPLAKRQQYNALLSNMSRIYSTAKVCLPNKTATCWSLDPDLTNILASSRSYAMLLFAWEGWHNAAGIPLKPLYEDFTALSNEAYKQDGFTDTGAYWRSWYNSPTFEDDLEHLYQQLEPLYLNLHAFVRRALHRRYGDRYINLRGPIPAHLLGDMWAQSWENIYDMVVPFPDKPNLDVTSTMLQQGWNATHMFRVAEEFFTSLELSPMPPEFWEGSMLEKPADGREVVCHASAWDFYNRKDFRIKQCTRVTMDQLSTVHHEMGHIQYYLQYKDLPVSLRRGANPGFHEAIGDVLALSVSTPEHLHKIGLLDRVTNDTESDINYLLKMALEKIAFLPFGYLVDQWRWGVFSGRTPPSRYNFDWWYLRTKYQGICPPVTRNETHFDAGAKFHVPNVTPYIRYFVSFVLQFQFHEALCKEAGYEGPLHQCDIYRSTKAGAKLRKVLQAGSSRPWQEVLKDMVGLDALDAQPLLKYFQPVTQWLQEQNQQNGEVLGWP
The assay can be described thus: continuous fluorogenic (Abz)-FRK(Dnp)P-OH ACE inhibition assay, wild-type N-domain. The class given is biochemical. The following applies: for Fold selectivity Ki (C/N): C-domain Ki / wild-type N-domain Ki. The procedure: as §1, §2

The target of assay [4] is T4, ACE N-domain mutant Y369F (Homo sapiens, UniProt P12821, Y398F).
T4 construct: N-domain S2 mutants Y369F, R381E and YR/FE
T4 sequence (P12821 40-624 Y398F): as the sequence (P12821 40-624 limits assumed) above, with Y359F counted along it
The assay can be described thus: continuous fluorogenic (Abz)-FRK(Dnp)P-OH ACE inhibition assay, N-domain S2 mutant Y369F. The class given is biochemical. How it is done:
as §1, §2

The target of assay [5] is T3, ACE N-domain (wild-type). More on the design: method as in PMID 10200262. The following applies: N-domain over C-domain; cited from earlier work.

Read-outs that look alike come from different tables or passages of the source.

T1 sequence (P12821 40-624 R410E): as the sequence (P12821 40-624 limits assumed) above, with R371E counted along it
T2 sequence (P12821 40-624 Y398F/R410E): as the sequence (P12821 40-624 limits assumed) above, with Y359F, R371E counted along it

For `C[C@H](CP(=O)(O)[C@H](Cc1ccccc1)NC(=O)[C@@H](N)Cc1nnn[nH]1)C(=O)N[C@H](C)C(N)=O` [33RE], the “Fold selectivity Ki (C/N)” value in assay [1] (C-domain Ki / R381E mutant Ki) was found to be 120 fold; in assay [2] (C-domain Ki / YR/FE mutant Ki), 4 fold; in assay [3], 927 fold; in assay [4] (C-domain Ki / Y369F mutant Ki), 26 fold. Further, the inhibition constant (Ki) stood at 0.087 ± 0.00629 µM in assay [1] (N-domain mutant R381E, means±S.E.M.); 2.79 ± 0.156 µM in assay [2] (N-domain double mutant YR/FE, means±S.E.M.); 0.0112 ± 0.00074 µM in assay [3]; 0.404 ± 0.0173 µM in assay [4] (N-domain mutant Y369F, means±S.E.M.). The “decrease in binding affinity compared with wild-type” value is recorded as 8 fold in assay [1] (R381E vs wild-type N-domain), 250 fold in assay [2] (YR/FE vs wild-type N-domain) and 36 fold in assay [4] (Y369F vs wild-type N-domain).
Take `CC(=O)NC(CC(=O)O)C(=O)NC(Cc1ccccc1)P(=O)(O)CC(C)C(=O)NC(C)C(N)=O` (centres unmarked) [RXP407, reference compound]: in assay [3], the “Fold selectivity Ki (C/N)” value worked out at 2896 fold. Besides, the inhibitory constant (Ki) in assay [3] (wild-type N-domain, Dixon method, means±S.E.M., read-out: Ki) is 0.021 ± 0.00027 µM. Moreover, in assay [5], the N-selectivity result is reported as “approximately three orders of magnitude”.
